Test results reported in US20240317721A1, “PYRAZOLYL DERIVATIVES AS INHIBITORS OF THE KRAS MUTANT PROTEIN” (NOVARTIS AG, priority 2021, published 2024).

biological target: KRasG12C (M1-K169, biotinylated on the N-terminus) (Homo sapiens (Human), UniProt P01116, G12C); experiment: Covalent competition assay: scintillation proximity assay (SPA) quantifying covalent modification of KRASG12C; assay type: binding; details: competition with radiolabeled covalent probe (Compound B/Compound A), 2 hours incubation, 10 nM KRasG12C
Method in brief: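 Test compounds compete with a radiolabeled covalent probe for modification of N-terminally biotinylated KRasG12C(M1-K169):GDP, final 10 nM protein, 25 nM radio-ligand, 475 nM unlabelled ligand, 2 h with agitation in 20 mM Tris-HCl pH 7.5, 150 mM NaCl, 0.1 mM MgCl2, 0.01% Tween-20.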

Compound	IC50 [nM]
C=CC(=O)N1CC2(CC(n3nc(N4CC(c5cccnc5)C4)c(-c4c(Cl)c(C)cc5[nH]ncc45)c3C)C2)C1 (single isomer, unassigned) [Example 37a, 1-(6-(4-(5-chloro-6-methyl-1H-indazol-4-yl)-5-methyl-3-(3-(pyridin-3-yl)azetidin-1-yl)-1H-pyrazol-1-yl)-2-azaspiro[3.3]heptan-2-yl)prop-2-en-1-one]	> 50000
C=CC(=O)N1CC2(CC(n3nc(N4CCN(C5CCOCC5)C[C@]4(C)C(F)F)c(-c4c(Cl)c(C)cc5[nH]ncc45)c3C)C2)C1 (single isomer, unassigned) [Example 151b]	> 5000
C=CC(=O)N1CC2(CC(n3nc(N4CCn5nccc5C4)c(-c4c(Cl)c(C)cc5[nH]ncc45)c3C)C2)C1 (single isomer, unassigned) [Example 10b, 1-(6-(4-(5-Chloro-6-methyl-1H-indazol-4-yl)-3-(6,7-dihydropyrazolo[1,5-a]pyrazin-5(4H)-yl)-5-methyl-1H-pyrazol-1-yl)-2-azaspiro[3.3]heptan-2-yl)prop-2-en-1-one]	105
C=CC(=O)N1CC2(CC(n3nc(N4CCC(CN5CCS(=O)(=O)CC5)CC4(C)C)c(-c4c(Cl)c(Cl)cc5[nH]ncc45)c3C)C2)C1 (single isomer, unassigned) [Example 236a, 1-(6-(4-(5,6-dichloro-1H-indazol-4-yl)-3-(4-((1,1-dioxidothiomorpholino)methyl)-2,2-dimethylpiperidin-1-yl)-5-methyl-1H-pyrazol-1-yl)-2-azaspiro[3.3]heptan-2-yl)prop-2-en-1-one]	168
C=C(F)C(=O)N1CC2(CC(n3nc(N4CCN(C[C@@H]5COCCO5)C[C@]4(C)COC)c(-c4c(Cl)c(Cl)cc5[nH]ncc45)c3C)C2)C1 (single isomer, unassigned) [Example 184a]	> 5000

Molecules with a lower IC50, results first:

IC50 [nM]	Compound
< 5	C=CC(=O)N1CC2(CC(n3nc(N4CC[C@@H](CN5CCCC56CN(C(C)=O)C6)CC4(C)C)c(-c4c(Cl)c(Cl)cc5[nH]ncc45)c3C)C2)C1 (single isomer, unassigned) [Example 276b]
9	C=CC(=O)N1CC2(CC(n3nc(N4CCN(C5CCOCC5)C[C@]4(C)COC)c(-c4c(Cl)c(C)cc5[nH]ncc45)c3C)C2)C1 (single isomer, unassigned) [Example 149b]
7	C=CC(=O)N1CC2(CC(n3nc(N4CCN(C5COC5)CC45CCC5)c(-c4c(Cl)c(Cl)cc5[nH]ncc45)c3C)C2)C1 (single isomer, unassigned) [Example 72b]
9	C=CC(=O)N1CC2(CC(n3nc(N4CC[C@@H](CN5CC6(CCN(S(C)(=O)=O)C6)C5)CC4(C)C)c(-c4c(Cl)c(Cl)cc5[nH]ncc45)c3C)C2)C1 (single isomer, unassigned) [Example 297b]
9	C=CC(=O)N1CC2(CC(n3nc(N4CC[C@@H](CN5CC6OCCN(C)C6C5)CC4(C)C)c(-c4c(Cl)c(Cl)cc5[nH]ncc45)c3C)C2)C1 (single isomer, unassigned) [Example 260b, 1-(6-(4-(5,6-dichloro-1H-indazol-4-yl)-3-((R)-2,2-dimethyl-4-(((4aR*,7aS*)-4-methylhexahydropyrrolo[3,4-b][1,4]oxazin-6(2H)-yl)methyl)piperidin-1-yl)-5-methyl-1H-pyrazol-1-yl)-2-azaspiro[3.3]heptan-2-yl)prop-2-en-1-one]
27	C=CC(=O)N1CC2(CC(n3nc(N4CCN(CCOC(F)F)CC45CCC5)c(-c4c(Cl)c(C)cc5[nH]ncc45)c3C)C2)C1 (single isomer, unassigned) [Example 183b, 1-(6-(4-(5-chloro-6-methyl-1H-indazol-4-yl)-3-(8-(2-(difluoromethoxy)ethyl)-5,8-diazaspiro[3.5]nonan-5-yl)-5-methyl-1H-pyrazol-1-yl)-2-azaspiro[3.3]heptan-2-yl)prop-2-en-1-one]
8	C=CC(=O)N1CC2(CC(n3nc(N4CC[C@@H](CN5CC6(C5)CN(C)C(=O)O6)CC4(C)C)c(-c4c(Cl)c(Cl)cc5[nH]ncc45)c3C)C2)C1 (single isomer, unassigned) [Example 284b]
